In PubChem BioAssay AID2060510 (Molecular Pharmacology Branch, DTP, NCI, 2025):
Several values for one entry are separate records, joined by “and”; a condition that tells them apart may be missing. Identical values can stand only once.

System: 439559-082-T-J2-PDC spheroids viability
Assay: Anticancer human tumor 439559-082-T-J2-PDC patient-derived colon adenocarcinoma cell line growth inhibition [GQUAD]
Conditions: for viability, T/C: stronger effect = lower value
Excerpt: DNA G-quadruplex Stabilizer Agents in Combinations in Complex Spheroids
A high-throughput screen of multi-cell type tumor spheroids was designed to identify active combinations of DNA G-quadruplex stabilizer agents and targeted small molecules. Complex spheroids include a stromal component modeled by human endothelial cells (HUVEC) and fibroblasts modeled by human mesenchymal stem cells (MSCs). The concentration ranges selected for each drug and investigational agent were based upon clinically achievable concentrations if the clinical Cmax of the agent was known.
Compounds. The drugs and investigational agents: pidnarulex (CX-5461; NSC782164), APTO-253 (NSC789042), BRACO-19 (NSC847499), peposertib (NSC802822), ceralasertib (NSC780249), elimusertib (NSC800525), camonsertib (NSC841442), AZD-1390 (NSC803789), olaparib (NSC753686), talazoparib (NSC767125), ART-558 (NSC835418), sotorasib (NSC818433), MRTX-1133 (NSC836407), SN-38 (NSC673596), topotecan (NSC609699), etoposide (NSC141540), doxorubicin (NSC123127), gemcitabine (NSC613327), 5-fluorouracil (NSC19893), paclitaxel (NSC125973), vemurafenib (NSC761431), panobinostat (NSC761190), R-306465 (JNJ-16241199; NSC773264), adavosertib (NSC754352), TP-3654 (NSC805149), carboplatin (NSC241240), KSQ-4279 (NSC840948), and staurosporine (NSC755774) were obtained from the National Cancer Institute (NCI) Developmental Therapeutics Program Chemical Repository (34). The FDA-approved anticancer drug set is available from the NCI Developmental Therapeutics Program. […] The stock solutions were prepared in dimethyl sulfoxide (DMSO, Sigma-Aldrich, St. Louis, MO, cat. D2650) at 800-fold the tested concentration and stored at -70 degrees C prior to their use. All drugs and investigational agents were tested over a range starting from a high concentration at or near the clinical Cmax and decreasing in half-log increments. If the clinical Cmax for an agent had not been determined, the highest concentration tested was 10 microM.
2.3 Cell Culture. All cells were maintained in an incubator at 37 degrees C and 5% CO2 with 95% humidity. The PDC lines were cultured according to standard operating procedures established by the NCI PDMR. All PDCs were thawed and cultured in Matrigel-coated flasks prepared with a working solution of 1X Ham's F-12 nutrient mix, without supplementation (Invitrogen, cat. 11765054), 100 U/mL penicillin-streptomycin (Invitrogen, cat. 15140122), and 2.5% Matrigel (Corning Inc., cat. 354248) for the first three passages. The 857933-349-R-J2-PDC line was cultured in 6C/Colon 1B media, which includes advanced DMEM/F-12 (Thermo Fisher Scientific, cat. 12634028), 10 mM HEPES (Thermo Fisher Scientific, cat. 15630080), 1X GlutaMAX supplement (Thermo Fisher Scientific, cat. 35050061), 0.1 mg/mL primocin (InvivoGen, cat. ant-pm-2), 10% defined fetal bovine serum, heat inactivated (HyClone Laboratories Inc., cat. SH30070.03HI), 50% L-WRN conditioned media (ATCC, cat. CRL-3276), 1.25 mM N-Acetyl-L-cysteine (Sigma-Aldrich, cat. A9165), 10 mM nicotinamide (Sigma-Aldrich, cat. N0636), 1X B-27 supplement (Thermo Fisher Scientific, cat. 17504044), 1X N-2 supplement (Thermo Fisher Scientific, cat. 17502048), 10 microM Y-27632 dihydrochloride (Tocris Bioscience, cat. 1254), and 50 ng/mL human EGF recombinant protein (Thermo Fisher Scientific, cat. PHG0311). The 485176-168-R4-J1-PDC line was cultured in Panc media, which includes all 6C/Colon 1B media components plus 100 ng/mL human FGF-10 (Thermo Fisher Scientific, cat. 100-26), 500 nM SB-431542 (Selleckchem, cat. S1067), and gastrin (Tocris, cat. 3006).
[…]

[1] = curve of first compound, second compound 0.0316 µM
[2] = curve of first compound, second compound 0.1 µM
[3] = curve of first compound, second compound 0.316 µM
[4] = curve of first compound, second compound 1 µM
[5] = curve of first compound, second compound 3.16 µM
[6] = curve of first compound, second compound 10 µM
[7] = second compound 0.0316 µM, first compound 0.0316 µM
[8] = second compound 0.0316 µM, first compound 0.1 µM
[9] = second compound 0.0316 µM, first compound 0.316 µM
[10] = second compound 0.0316 µM, first compound 1 µM
[11] = second compound 0.0316 µM, first compound 3.16 µM
[12] = second compound 0.0316 µM, first compound 10 µM
[13] = second compound 0.1 µM, first compound 0.0316 µM
[14] = second compound 0.1 µM, first compound 0.1 µM
[15] = second compound 0.1 µM, first compound 0.316 µM
[16] = second compound 0.1 µM, first compound 1 µM
[17] = second compound 0.1 µM, first compound 3.16 µM
[18] = second compound 0.1 µM, first compound 10 µM
[19] = second compound 0.316 µM, first compound 0.0316 µM
[20] = second compound 0.316 µM, first compound 0.1 µM
[21] = second compound 0.316 µM, first compound 0.316 µM
[22] = second compound 0.316 µM, first compound 1 µM
[23] = second compound 0.316 µM, first compound 3.16 µM
[24] = second compound 0.316 µM, first compound 10 µM
[25] = second compound 1 µM, first compound 0.0316 µM
[26] = second compound 1 µM, first compound 0.1 µM
[27] = second compound 1 µM, first compound 0.316 µM
[28] = second compound 1 µM, first compound 1 µM
[29] = second compound 1 µM, first compound 3.16 µM
[30] = second compound 1 µM, first compound 10 µM
[31] = second compound 3.16 µM, first compound 0.0316 µM
[32] = second compound 3.16 µM, first compound 0.1 µM
[33] = second compound 3.16 µM, first compound 0.316 µM
[34] = second compound 3.16 µM, first compound 1 µM
[35] = second compound 3.16 µM, first compound 3.16 µM
[36] = second compound 3.16 µM, first compound 10 µM
[37] = second compound 10 µM, first compound 0.0316 µM
[38] = second compound 10 µM, first compound 0.1 µM
[39] = second compound 10 µM, first compound 0.316 µM
[40] = second compound 10 µM, first compound 1 µM
[41] = second compound 10 µM, first compound 3.16 µM
[42] = second compound 10 µM, first compound 10 µM
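Also: spheroids exposed to the agents for 7 days before readout.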
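For viability, T/C in this document: percent of luminescence signal in DMSO vehicle wells taken as 100% viability.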

With `CC(C)(O)C1CCC(Nc2ccc3ncc(-c4cccc(C(F)(F)F)c4)n3n2)CC1` (stereo unspecified) + Cc1[nH]c2ccc(F)cc2c1-c1nc2c3cccnc3c3ncccc3c2[nH]1 the IC50 [1] was > 10 µM, the IC50 [2] was 7.93 µM and the IC50 [3] was > 10 µM. The IC50 [4] was 6.31 µM, the IC50 [5] was 3.21 µM and the IC50 [6] was 1.23 µM. The viability, T/C [7] was 99.4%, the viability, T/C [8] was 85.6% and the viability, T/C [9] was 70.6%. The viability, T/C [10] was 66%, the viability, T/C [11] was 58.8% and the viability, T/C [12] was 48.6%. It also gave a viability, T/C [13] of 102%, a viability, T/C [14] of 78% and a viability, T/C [15] of 77.9%. For the same molecule, the viability, T/C [16] was 58.8%, the viability, T/C [17] was 66.2% and the viability, T/C [18] was 42.9%. It also gave a viability, T/C [19] of 86.3%, a viability, T/C [20] of 76.6% and a viability, T/C [21] of 62.4%. For the same molecule, the viability, T/C [22] was 61.9%, the viability, T/C [23] was 53.6% and the viability, T/C [24] was 50.1%. It also gave a viability, T/C [25] of 87.1%, a viability, T/C [26] of 69.1% and a viability, T/C [27] of 76.4%. It also gave a viability, T/C [28] of 66.3%, a viability, T/C [29] of 61.4% and a viability, T/C [30] of 42.5%. It also gave a viability, T/C [31] of 77.8%, a viability, T/C [32] of 73% and a viability, T/C [33] of 62.3%. For the same molecule, the viability, T/C [34] was 51.3%, the viability, T/C [35] was 57.7% and the viability, T/C [36] was 41.1%. It also gave a viability, T/C [37] of 75.8%, a viability, T/C [38] of 73% and a viability, T/C [39] of 63.4%. The viability, T/C [40] was 50.6%, the viability, T/C [41] was 44.5% and the viability, T/C [42] was 38.2%.
For `O=C(c1cc(Cc2n[nH]c(=O)c3ccccc23)ccc1F)N1CCN(C(=O)C2CC2)CC1` + CN(C)c1ccc(Nc2c3ccc(NC(=O)CCN4CCCC4)cc3nc3cc(NC(=O)CCN4CCCC4)ccc23)cc1, the IC50 [1] was > 10 µM, the IC50 [2] was > 10 µM and the IC50 [3] was > 10 µM. For the same molecule, the IC50 [4] was > 10 µM, the IC50 [5] was > 10 µM and the IC50 [6] was > 10 µM. The viability, T/C [7] was 101%, the viability, T/C [8] was 92.1% and the viability, T/C [9] was 102%. The viability, T/C [10] was 99.6%, the viability, T/C [11] was 94.4% and the viability, T/C [12] was 95.5%. For the same molecule, the viability, T/C [13] was 101%, the viability, T/C [14] was 96.6% and the viability, T/C [15] was 99.2%. The viability, T/C [16] was 97.9%, the viability, T/C [17] was 101% and the viability, T/C [18] was 87.3%. The viability, T/C [19] was 96.2%, the viability, T/C [20] was 104% and the viability, T/C [21] was 98.5%. It also gave a viability, T/C [22] of 96.2%, a viability, T/C [23] of 100% and a viability, T/C [24] of 90.8%. For the same molecule, the viability, T/C [25] was 98.3%, the viability, T/C [26] was 95.1% and the viability, T/C [27] was 95.3%. It also gave a viability, T/C [28] of 97.6%, a viability, T/C [29] of 98.5% and a viability, T/C [30] of 107%. For the same molecule, the viability, T/C [31] was 103%, the viability, T/C [32] was 99.7% and the viability, T/C [33] was 94.9%. The viability, T/C [34] was 101%, the viability, T/C [35] was 99.1% and the viability, T/C [36] was 99.7%. The viability, T/C [37] was 105%, the viability, T/C [38] was 96.8% and the viability, T/C [39] was 104%. It also gave a viability, T/C [40] of 93%, a viability, T/C [41] of 108% and a viability, T/C [42] of 94.9%.
`Cn1ncnc1[C@H]1c2n[nH]c(=O)c3cc(F)cc(c23)N[C@@H]1c1ccc(F)cc1` was tested, and the viability, T/C (compound 0.000999 µM) was 92.5% and 104% and 94.8%, the viability, T/C (compound 0.00316 µM) was 84.5% and 91.5% and 115% and the viability, T/C (compound 0.00999 µM) was 84.5% and 99.1% and 95.4%. For the same molecule, the viability, T/C (compound 0.0316 µM) was 87.8% and 102% (2×), the viability, T/C (compound 0.0999 µM) was 94.9% and 96.3% and 91.8% and the viability, T/C (compound 0.316 µM) was 91.2% and 91.9% and 86.3%. For the same molecule, the IC50 (curve of compound) was > 0.316 µM.
